# Results: patent US20110092547A1 (priority 2007, published 2011)
# Biological target: T1, human DGAT1 (Homo sapiens, UniProt O75907)
# T1 construct: made in house; host or cells: Sf9 insect cells (recombinant baculovirus); membrane fraction
# T1 sequence (O75907 1-488): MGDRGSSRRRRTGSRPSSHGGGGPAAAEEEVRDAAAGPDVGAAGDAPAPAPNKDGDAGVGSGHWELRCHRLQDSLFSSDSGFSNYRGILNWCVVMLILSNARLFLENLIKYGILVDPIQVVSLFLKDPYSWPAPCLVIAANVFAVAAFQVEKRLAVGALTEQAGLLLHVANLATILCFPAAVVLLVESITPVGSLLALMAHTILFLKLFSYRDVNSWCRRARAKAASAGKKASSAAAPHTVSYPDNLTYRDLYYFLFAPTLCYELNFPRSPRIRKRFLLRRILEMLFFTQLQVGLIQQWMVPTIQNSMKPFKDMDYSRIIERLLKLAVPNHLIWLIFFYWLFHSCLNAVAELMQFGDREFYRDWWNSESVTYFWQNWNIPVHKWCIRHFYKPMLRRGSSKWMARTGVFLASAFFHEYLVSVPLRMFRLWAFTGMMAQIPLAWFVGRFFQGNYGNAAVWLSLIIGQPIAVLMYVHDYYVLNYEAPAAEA
# Assay: Human enzyme assay, further developed assay (14C oleoyl CoA, 96 well plate)
# Format: biochemical
# Conditions: human DGAT1 expressed in insect cell (sf9) membranes
# Experimental: The in vitro assay to identify DGAT1 inhibitors uses human DGAT1 expressed in insect cell membranes as the enzyme source (Proc. Natl. Acad. Sci. 1998, 95, 13018-13023). Briefly, sf9 cells were infected with recombinant baculovirus containing human DGAT1 coding sequences and harvested after 48 h. Cells were lysed by sonication and membranes isolated by centrifuging at 28000 rpm for 1 h at 4° C. on a 41% sucrose gradient. The membrane fraction at the interphase was collected, washed, and stored in liquid nitrogen.
# In a further developed assay, DGAT1 activity was assayed by a modification of the method described by Coleman (Methods in Enzymology 1992, 209, 98-102). Compound at 0.00003-10 μM (final cone) was incubated with 25 μg/ml (final cone) membrane protein, 5 mM MgCl2, and 100 μM 1,2 dioleoyl-sn-glycerol in a total assay volume of 200 μl in a 96 well plate. The reaction was started by adding ^14C oleoyl coenzyme A (30 μM final concentration) and incubated at room temperature for 30 minutes. The reaction was stopped by adding 300 μl 2-propanol:heptane 7:1. Radioactive triolein product was separated into the organic phase by adding 200 μl heptane and 200 μl 0.1 M carbonate buffer pH 9.5. DGAT1 activity was quantified by counting aliquots of the upper heptane layer by liquid scintillography.
row,SMILES,IC50
1,"O=C(Nc1cnc(O[C@H]2CC[C@@H](C(=O)O)CC2)c(Cl)c1)c1nnc(Nc2ccc(Cl)cc2Cl)o1 [Example 46, (1s,4s)-4-(3-Chloro-5-(5-(2,4-dichlorophenylamino)-1,3,4-oxadiazole-2-carboxamido)pyridin-2-yloxy)cyclohexanecarboxylic acid]",22 nM
2,"O=C(O)C[C@H]1CC[C@@H](Oc2ccc(NC(=O)c3nnc(Nc4ccc(F)c(F)c4)o3)cn2)CC1 [Example 36, 2-((1s,4s)-4-(5-(5-(3,4-difluorophenylamino)-1,3,4-oxadiazole-2-carboxamido)pyridin-2-yloxy)cyclohexyl)acetic acid]",9.6 nM
3,"O=C(Nc1ccc(O[C@@H]2CC[C@@H](C(=O)O)C2)nc1)c1nnc(Nc2ccc(F)c(F)c2)o1 [Example 49, (1R,3R)-3-(5-(5-(3,4-Difluorophenylamino)-1,3,4-oxadiazole-2-carboxamido)pyridin-2-yloxy)cyclopentanecarboxylic acid]",18 nM
4,"O=C(Nc1ccc(OC2CCC(C(=O)O)CC2)nc1)c1nnc(Nc2ccc(OC(F)F)cc2)o1 (stereo not drawn) [Example 21, 4-[(5-{[(5-{[4-(difluoromethoxy)phenyl]amino}-1,3,4-oxadiazol-2-yl)carbonyl]amino}pyridin-2-yl)oxy]cyclohexanecarboxylic acid]",11 nM
5,"O=C(Nc1ccc(O[C@H]2CC[C@@H](C(=O)O)CC2)nc1)c1nnc(Nc2cccc(OC(F)(F)F)c2)o1 [Example 6, (1s,4s)-4-(5-(5-(3-(trifluoromethoxy)phenylamino)-1,3,4-oxadiazole-2-carboxamido)pyridin-2-yloxy)cyclohexanecarboxylic acid]",23 nM
6,"C[C@]1(C(=O)O)CC[C@@H](Oc2ccc(NC(=O)c3nnc(Nc4ccc(F)c(F)c4)o3)cn2)CC1 [Example 68, (1s,4s)-4-(5-(5-(3,4-Difluorophenylamino)-1,3,4-oxadiazole-2-carboxamido)pyridin-2-yloxy)-1-methylcyclohexanecarboxylic acid]",8.3 nM
7,"O=C(Nc1ccc(O[C@H]2CC[C@H](C(=O)O)CC2)nc1)c1nnc(Nc2ccc(F)c(C(F)(F)F)c2)o1 [Example 29, (1r,4r)-4-(5-(5-(4-fluoro-3-(trifluoro-methyl)phenylamino)-1,3,4-oxadiazole-2-carboxamido)pyridin-2-yloxy)cyclo-hexane-carboxylic acid]",25 nM
8,"COc1cc(NC(=O)c2nnc(Nc3ccc(F)c(F)c3)o2)cnc1O[C@H]1CC[C@@H](C(=O)O)CC1 [Example 57, (1s,4s)-4-(5-(5-(3,4-Difluorophenylamino)-1,3,4-oxadiazole-2-carboxamido)-3-methoxypyridin-2-yloxy)cyclohexanecarboxylic acid]",410 nM
9,"O=C(Nc1ccc(O[C@H]2CC[C@@H](C(=O)O)CC2)nc1)c1nnc(Nc2cc(C(F)(F)F)c(F)cc2F)o1 [Example 5, (1s,4s)-4-(5-(5-(2,4-difluoro-5-(trifluoromethyl)phenylamino)-1,3,4-oxadiazole-2-carboxamido)pyridin-2-yloxy)cyclohexanecarboxylic acid]",31 nM
10,"O=C(Nc1ccc(O[C@H]2CC[C@H](C(=O)O)CC2)nc1)c1nnc(Nc2cccc(Cl)c2)o1 [Example 27, (1r,4r)-4-(5-(5-(3-chloro-phenylamino)-1,3,4-oxadiazole-2-carboxamido)pyridin-2-yloxy)cyclo-hexane-carboxylic acid]",19 nM
11,"COc1cc(NC(=O)c2nnc(Nc3ccc(F)c(Cl)c3)o2)cnc1O[C@H]1CC[C@@H](C(=O)O)CC1 [Example 56, (1s,4s)-4-(5-(5-(3-Chloro-4-fluorophenylamino)-1,3,4-oxadiazole-2-carboxamido)-3-methoxypyridin-2-yloxy)cyclohexanecarboxylic acid]",150 nM
12,"C[C@]1(C(=O)O)CC[C@H](Oc2ccc(NC(=O)c3nnc(Nc4ccc(F)c(F)c4)o3)cn2)CC1 [Example 2, (1r,4r)-4-(5-(5-(3,4-difluorophenylamino)-1,3,4-oxadiazole-2-carboxamido)pyridin-2-yloxy)-1-methylcyclohexanecarboxylic acid]",494 nM
13,"O=C(Nc1cnc(O[C@H]2CC[C@@H](C(=O)O)CC2)c(Cl)c1)c1nnc(Nc2ccc(F)c(F)c2)o1 [Example 47, (1s,4s)-4-(3-Chloro-5-(5-(3,4-difluorophenylamino)-1,3,4-oxadiazole-2-carboxamido)pyridin-2-yloxy)cyclohexanecarboxylic acid]",22 nM
14,CC(C)c1ccc(Nc2nnc(C(=O)Nc3ccc(O[C@H]4C[C@@H](C(=O)O)C4)nc3)o2)cc1 [Example 63],30 nM
15,"CC(C)(C)c1ccc(Nc2nnc(C(=O)Nc3ccc(O[C@H]4CC[C@H](C(=O)O)CC4)nc3)o2)cc1 [Example 31, (1r,4r)-4-(5-(5-(4-tert-butylphenyl-amino)-1,3,4-oxadiazole-2-carboxamido)pyridin-2-yloxy)cyclo-hexane-carboxylic acid]",48 nM
16,"O=C(Nc1ccc(O[C@H]2CC[C@@H](C(=O)O)CC2)nc1)c1nnc(Nc2ccc(F)c(F)c2)o1 [Example 1, cis-4-[5-[[5-[(3,4-Difluorophenyl)amino]-1,3,4-oxadiazole-2-carbonyl]amino]pyridin-2-yl]oxycyclohexane-1-carboxylic acid]",11 nM
17,"O=C(Nc1ccc(O[C@H]2C[C@@H](C(=O)O)C2)nc1)c1nnc(Nc2ccc(F)c(F)c2)o1 [Example 65, cis-3-(5-(5-(3,4-difluorophenylamino)-1,3,4-oxadiazole-2-carboxamido)pyridin-2-yloxy)cyclobutanecarboxylic acid]",26 nM
18,O=C(Nc1ccc(O[C@H]2CC[C@H](C(=O)O)CC2)nc1)c1nnc(Nc2cc(C(F)(F)F)c(F)cc2F)o1 [Example 35],87 nM
19,"Cc1ccc(Nc2nnc(C(=O)Nc3ccc(O[C@H]4CC[C@@H](C(=O)O)CC4)nc3)o2)cc1Cl [Example 15, (1s,4s)-4-(5-(5-(3-chloro-4-methylphenylamino)-1,3,4-oxadiazole-2-carboxamido)pyridin-2-yloxy)cyclohexanecarboxylic acid]",8 nM

# Stronger by IC50, values ahead:
row,IC50,SMILES
1,7.2 nM,"CC1(C(=O)O)CCC(Oc2ccc(NC(=O)c3nnc(Nc4ccc(Cl)cc4Cl)o3)cn2)CC1 (stereo not drawn) [Example 67, 4-(5-((5-((2,4-dichlorophenyl)amino)-1,3,4-oxadiazole-2-carbonyl)amino)pyridin-2-yl)oxy-1-methylcyclohexane-1-carboxylic acid]"
2,7.2 nM,"O=C(Nc1ccc(O[C@H]2CC[C@@H](C(=O)O)CC2)nc1)c1nnc(Nc2ccc(OC(F)(F)F)cc2)o1 [Example 11, (1s,4s)-4-(5-(5-(4-(trifluoromethoxy)phenylamino)-1,3,4-oxadiazole-2-carboxamido)pyridin-2-yloxy)cyclohexanecarboxylic acid]"
3,6.1 nM,"O=C(Nc1cnc(O[C@H]2CC[C@@H](C(=O)O)CC2)cc1F)c1nnc(Nc2cc(F)c(F)cc2F)o1 [Example 58, (1s,4s)-4-(4-Fluoro-5-(5-(2,4,5-trifluorophenylamino)-1,3,4-oxadiazole-2-carboxamido)pyridin-2-yloxy)cyclohexanecarboxylic acid]"
4,5.4 nM,"O=C(O)c1ccc(Oc2ccc(NC(=O)c3nnc(Nc4ccc(F)c(F)c4)o3)cn2)cc1 [Example 38, 4-(5-(5-(3,4-Difluorophenylamino)-1,3,4-oxadiazole-2-carboxamido)-Pyridin-2-yloxy)benzoic acid]"
5,4.1 nM,"O=C(Nc1ccc(O[C@H]2CC[C@@H](C(=O)O)CC2)nc1F)c1nnc(Nc2cc(F)c(F)cc2F)o1 [Example 70, (1s,4s)-4-(6-Fluoro-5-(5-(2,4,5-trifluorophenylamino)-1,3,4-oxadiazole-2-carboxamido)pyridin-2-yloxy)cyclohexanecarboxylic acid]"
6,3.4 nM,"O=C(Nc1ccc(O[C@H]2CC[C@@H](C(=O)O)CC2)nc1F)c1nnc(Nc2ccc(F)c(F)c2)o1 [Example 50, (1s,4s)-4-(5-(5-(3,4-Difluorophenylamino)-1,3,4-oxadiazole-2-carboxamido)-6-fluoropyridin-2-yloxy)cyclohexanecarboxylic acid]"
7,2.1 nM,"O=C(Nc1ccc(O[C@H]2CC[C@@H](C(=O)O)CC2)nc1F)c1nnc(Nc2ccc(F)c(Cl)c2)o1 [Example 55, (1s,4s)-4-(5-(5-(3-Chloro-4-fluorophenylamino)-1,3,4-oxadiazole-2-carboxamido)-6-fluoropyridin-2-yloxy)cyclohexanecarboxylic acid]"
8,1.9 nM,CC(C)c1ccc(Nc2nnc(C(=O)Nc3ccc(O[C@H]4C[C@H](C(=O)O)C4)nc3)o2)cc1 [Example 64]
